Experimental data: paper PMC6351562, “Structure, function, and inhibition of drug reactivating human gut microbial β-glucuronidases” (Scientific Reports, 2019)
Where two headings read alike, the source gives them in different places.

Columns and labels:
[1] = target: T1, Ruminococcus gnavus GUS (RgGUS) (Mediterraneibacter gnavus, UniProt A0A2N5PVZ8); assay: In vitro inhibition assay (pNPG hydrolysis); assay type: biochemical
T1 sequence (A0A2N5PVZ8 1-603): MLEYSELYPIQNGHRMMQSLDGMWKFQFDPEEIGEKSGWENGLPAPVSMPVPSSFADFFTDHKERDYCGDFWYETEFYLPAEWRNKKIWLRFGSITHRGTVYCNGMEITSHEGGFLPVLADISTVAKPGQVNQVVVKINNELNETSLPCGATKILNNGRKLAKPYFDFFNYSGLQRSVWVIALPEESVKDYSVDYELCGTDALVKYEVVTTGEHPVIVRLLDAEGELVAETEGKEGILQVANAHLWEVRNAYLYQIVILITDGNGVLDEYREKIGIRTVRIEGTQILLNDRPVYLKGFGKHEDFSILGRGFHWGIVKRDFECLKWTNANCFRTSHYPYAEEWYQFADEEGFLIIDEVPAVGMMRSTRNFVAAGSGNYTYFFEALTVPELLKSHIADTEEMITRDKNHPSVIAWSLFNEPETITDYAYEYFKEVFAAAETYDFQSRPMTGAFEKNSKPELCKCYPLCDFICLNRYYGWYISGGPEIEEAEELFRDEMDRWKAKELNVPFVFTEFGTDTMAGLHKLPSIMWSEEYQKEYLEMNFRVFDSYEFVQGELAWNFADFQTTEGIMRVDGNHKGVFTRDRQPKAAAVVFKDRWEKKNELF

[2] = target: T2, Bacteroides dorei GUS (BdGUS) (Phocaeicola dorei, UniProt I9FNR0); assay: In vitro inhibition assay (pNPG hydrolysis); assay type: biochemical; conditions: for IC50: pNPG 900 µM
T2 sequence (I9FNR0 21-875): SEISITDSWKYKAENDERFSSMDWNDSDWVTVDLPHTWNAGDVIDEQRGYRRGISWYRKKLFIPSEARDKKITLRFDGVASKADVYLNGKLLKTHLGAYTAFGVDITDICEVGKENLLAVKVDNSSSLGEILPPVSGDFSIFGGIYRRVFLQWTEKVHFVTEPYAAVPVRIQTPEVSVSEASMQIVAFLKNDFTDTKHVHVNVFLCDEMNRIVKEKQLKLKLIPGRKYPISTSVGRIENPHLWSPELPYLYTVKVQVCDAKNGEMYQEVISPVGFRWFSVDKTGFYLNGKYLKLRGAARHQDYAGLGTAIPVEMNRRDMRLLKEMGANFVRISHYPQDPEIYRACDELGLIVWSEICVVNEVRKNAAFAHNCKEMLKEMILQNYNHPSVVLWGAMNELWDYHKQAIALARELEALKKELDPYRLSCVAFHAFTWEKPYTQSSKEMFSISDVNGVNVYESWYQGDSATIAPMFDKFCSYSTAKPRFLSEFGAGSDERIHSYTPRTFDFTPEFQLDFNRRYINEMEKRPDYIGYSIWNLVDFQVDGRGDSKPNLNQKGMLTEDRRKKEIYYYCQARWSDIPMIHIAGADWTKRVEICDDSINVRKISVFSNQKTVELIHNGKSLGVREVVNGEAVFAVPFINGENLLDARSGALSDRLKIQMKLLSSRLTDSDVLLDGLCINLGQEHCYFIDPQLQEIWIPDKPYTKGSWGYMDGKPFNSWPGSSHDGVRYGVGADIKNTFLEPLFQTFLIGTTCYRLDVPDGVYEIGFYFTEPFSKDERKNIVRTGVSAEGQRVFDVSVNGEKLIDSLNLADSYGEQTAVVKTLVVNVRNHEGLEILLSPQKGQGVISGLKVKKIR

[3] = target: T3, Lactobacillus rhamnosus GUS (LrGUS) (Lacticaseibacillus rhamnosus, UniProt A0A2A5L2J1); assay: In vitro inhibition assay (pNPG hydrolysis); assay type: biochemical
T3 sequence (A0A2A5L2J1 1-603): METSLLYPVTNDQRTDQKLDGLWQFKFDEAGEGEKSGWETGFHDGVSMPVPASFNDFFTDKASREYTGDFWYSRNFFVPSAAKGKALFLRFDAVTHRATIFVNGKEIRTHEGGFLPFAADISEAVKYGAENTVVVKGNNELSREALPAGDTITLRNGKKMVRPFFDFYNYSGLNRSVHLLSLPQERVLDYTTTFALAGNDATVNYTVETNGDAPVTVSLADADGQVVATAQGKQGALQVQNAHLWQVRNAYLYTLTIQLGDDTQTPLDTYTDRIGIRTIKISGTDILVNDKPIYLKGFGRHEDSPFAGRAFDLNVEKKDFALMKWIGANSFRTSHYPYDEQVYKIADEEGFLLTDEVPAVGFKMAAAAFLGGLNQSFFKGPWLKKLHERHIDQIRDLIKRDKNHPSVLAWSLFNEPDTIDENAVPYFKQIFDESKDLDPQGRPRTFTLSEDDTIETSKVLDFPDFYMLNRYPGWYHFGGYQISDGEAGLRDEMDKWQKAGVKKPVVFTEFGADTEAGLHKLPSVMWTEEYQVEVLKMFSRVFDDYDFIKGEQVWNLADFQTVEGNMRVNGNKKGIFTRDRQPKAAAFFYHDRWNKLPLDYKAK

[4] = test system: EcGUS F365A; assay type: biochemical, E. coli; conditions: IC50 curves, Fig. S14
[5] = target: T2, Bacteroides dorei GUS (BdGUS); assay: In vitro DCF-G processing assay (UPLC); assay type: biochemical; conditions: DCF-G as substrate, 400 µM; pH 6.0; 37 °C
[6] = read-out: Inhibitor 1 (IC50, nM) pH 7.5, pH 7.5, pNPG 900 µM
[7] = pH 7.5, pNPG 900 µM, read-out: UNC10201652 (IC50, nM) pH 7.5
[8] = read-out: UNC10201652 (IC50, nM) pH 6.5

SMILES | IC50 [1] | IC50 [1, 6] | IC50 ([2]; Inhibitor 1 (IC50, nM) pH 6.5, pH 6.5) | IC50 ([2]; Inhibitor 1 (IC50, nM) pH 7.5, pH 7.5) | IC50 [3] | IC50 [3, 6] | potency toward EcGUS F365 mutant compared with WT [4] | Apparent kcat [5] | IC50 [1, 7] | IC50 [1, 8] | inhibition at 100 µM ([2]; 100 µM, pH 6.5, read-out: inhibition at 100 µM UNC10201652) | IC50 ([2]; pH 6.5, read-out: UNC10201652 (IC50, nM) pH 6.5) | IC50 ([2]; pH 7.5, 1 hour end point, read-out: UNC10201652 (IC50, nM) pH 7.5) | IC50 [3, 7] | IC50 [3, 8]
CCOc1ccc(NC(=S)N(CCO)Cc2cc3cc(C)cc(C)c3[nH]c2=O)cc1 [Inhibitor 1] | > 100000 nM | > 100000 nM | > 100000 nM | > 100000 nM | > 100000 nM | > 100000 nM | less potent |  |  |  |  |  |  |  | 
O=C(Cc1ccccc1Nc1c(Cl)cccc1Cl)O[C@@H]1O[C@H](C(=O)O)[C@@H](O)[C@H](O)[C@H]1O [DCF-G, Diclofenac acyl β-D-glucuronide] |  |  |  |  |  |  |  | 9.8 ± 0.6 s⁻¹ |  |  |  |  |  |  | 
C1CCc2c(c(N3CCOCC3)nc3sc4c(N5CCNCC5)nnnc4c23)C1 [UNC10201652] |  |  |  |  |  |  | less potent |  | > 100000 nM | > 100000 nM | < 80% | > 100000 nM | > 25000 nM | > 100000 nM | > 100000 nM
